According to patent publication US20210205271A1 (The Johns Hopkins University, priority 2018, published 2021):
Where two headings read alike, the source gives them in different places.

What was measured:
[1] = rats; cited from earlier work
[2] = mouse, in vivo, iv, 1.5 mg/kg
Procedure: (§1) All pharmacokinetic studies in mice were conducted according to protocols approved by the Animal Care and Use Committee at Johns Hopkins University. Male CD-1 mice between 25 and 30 g were obtained from Harlan, and maintained on a 12-h light-dark cycle with ad libitum access to food and water. […] The mice were sacrificed at specified time points post drug administration. For collection of plasma and brain tissue, animals were euthanized with CO2, and blood samples were collected in heparinized microtubes by cardiac puncture. Tissues were dissected and immediately flash frozen (−80° C.). Blood samples were spun at 2,000×g for 15 min, plasma was removed and stored at −80° C. until LC/MS analysis. Prior to extraction, frozen samples were thawed on ice. The calibration curves were developed using plasma and brain from naïve animals as a matrix. Plasma samples (50 μL), were processed using a single liquid extraction method by addition of 3004 of acetonitrile as with internal standard (losartan: 0.5 μM), followed by vortex mixing for 30 sec and then centrifugation at 10,000×g for 10 min at 4° C. For brain tissue, homogenized samples were vortex mixed and centrifuged as above. A 104 aliquot of supernatant was diluted with 35 µL of acetonitrile and mixed with 50 μL water containing 0.5 μM losartan as internal standard. Extracts were centrifuged at 10,000×g for 10 min at 4° C. Supernatants were transferred to 2504 polypropylene autosampler vials sealed with a Teflon cap. A volume of 34 was injected onto the ultra-performance liquid chromatography (UPLC) instrument for quantitative analysis by LC-MS/MS.

[3] = mouse, in vivo, po, 30 mg/kg
Procedure: Brain concentrations of MBZ were also measured in tandem.
as §1

[4] = MBZ plasma exposure in male beagle dogs after oral administration; type: in vivo, dog; conditions: PO […] MBZ equivalent
[5] = dog, in vivo, iv, 0.3 mg/kg
Procedure: Using a co-solvent system comprising of 1% DMSO and 10% CremophorEL formulation, however, MBZ was successfully administered via IV at a dose of 1.5 mg/kg in mice (FIG. 3A) and a dose of 0.3 mg/kg in dog (FIG. 3B).

| Compound | fold improvement in plasma exposure versus equimolar oral MBZ [1] [fold] | AUC0-t [2] [µM·h] | Cmax [2] [µM] | Tmax [2] [min] | Vd [2] [L/kg] | time of Cmax post-dose [2] [min] | AUC0-t (MBZ, brain) [3] [nmol·h/g] | AUC0-t (MBZ, plasma) [3] [µM·h] | % F (oral bioavailability of MBZ) [4] [%] | Tmax (MBZ, plasma) [4] [h] | AUC0-t [5] [µM·h] | Vd [5] [L/kg] |
| --- | --- | --- | --- | --- | --- | --- | --- | --- | --- | --- | --- | --- |
| COC(=O)NC(=S)Nc1cc(C(=O)c2ccccc2)ccc1N [4-amino-3-(3′-methoxycarbonyl-2′-thioureido)benzophonone] | 2 | – | – | – | – | – | – | – | – | – | – | – |
| Mebendazole [MBZ-C] | – | 2.7 | 5.3 | 4.98 | 1.4 | 5 | 13.1 ± 4.2 | 12.9 | 11 | 2 | 0.9 | 1.3 |
